PubChem BioAssay (NCI)
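Each compound was tested at five concentrations against cells in 96-well plates for 48 hours. TGI: concentration producing complete growth inhibition.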

Experiments:
Experiment in all cases: NCI tumour cell line growth inhibition, 48 h
[1] = test system: P388 leukemia
[2] = test system: P388/ADR leukemia
[3] = test system: SN12K1 renal
[4] = test system: RXF-631 renal

Compound	TGI [1] [µM]	TGI [2] [µM]	TGI [3] [µM]	TGI [4] [µM]
O[C@H]1[C@H](O)[C@@H](O)CN2CC[C@H](O)[C@H]12	> 100	> 100	> 100	
O=C1NC(O)CCN1C1OC(CO)C(O)C1O (configuration not stated)	> 250	> 250	> 250	
COc1cc(C2c3cc4c(cc3[C@@H](Nc3ccccc3)C3COC(=O)[C@H]23)OCO4)cc(OC)c1O (some centres not stated)	2.35	4.59	8.65	
CCOC(=O)CNC(=O)NC12CC3CC(CC(C3)C1)C2	430	> 550	503	
CCOC(=O)/C=C1/C(CCCOCc2ccccc2)C2CCCC23CC2(CCN13)OCCO2 (configuration not stated)				94.6
CN1Cc2c(nc(-c3ccccc3)c[n+]2[O-])N(C)C1				> 100
C=CC1(C)CC(=O)C2(O)C(C)(O1)C(OC(C)=O)C(O)C1C(C)(C)CCC(O)C12C (configuration not stated)	> 150	> 84.4	> 150	
